Results: publication PMC7294773 (Neuropharmacology, 2017)
Entries after “also recorded” stand apart in the source; their conditions may differ. Where two headings read alike, the source gives them in different places.

How the values were obtained:
NET = experiment: Release of [3H]MPP+ from rat brain synaptosomes; format: biochemical; conditions: 1/(NET EC50) divided by 1/(SERT EC50)
DAT [1] = biological target: T1, DAT (Rattus norvegicus, UniProt P23977); experiment: Release of [3H]MPP+ from rat striatal synaptosomes; format: biochemical; conditions: for DAT / NET ratio (release): 1/(DAT EC50) divided by 1/(NET EC50); for DAT / NET ratio (release) / DAT / SERT ratio (release): rat brain synaptosomes; for DAT / SERT ratio (release): 1/(DAT EC50) divided by 1/(SERT EC50)
human SERT (hSERT) = human SERT (hSERT) (Homo sapiens, UniProt P31645); experiment: Radiotracer uptake inhibition in HEK293 cells expressing hSERT; format: cell-based; conditions: for IC50: IC50 SERT, inhibition of transporter-mediated uptake, hSERT, [3H]5HT 100 nM, mean ± SEM, n=3
hDAT [2] = biological target: T2, hDAT (Homo sapiens, UniProt Q01959); format: cell-based; conditions: 5 µM, without monensin, HEK293 cells
hNET = hNET (Homo sapiens, UniProt P23975); format: cell-based; conditions: 5 µM, without monensin, HEK293 cells
hSERT [3] = biological target: T3, hSERT (Homo sapiens, UniProt P31645); conditions: for Ionic current mediated via hSERT: cells clamped to −60 mV, representative traces; for Kind of current evoked in SERT-expressing cells: whole-cell patch clamp, in words
SERT = SERT (Rattus norvegicus, UniProt P31652); experiment: Release of [3H]5-HT from rat brain synaptosomes; format: biochemical
human DAT (hDAT) = human DAT (hDAT) (Homo sapiens, UniProt Q01959); experiment: Radiotracer uptake inhibition in HEK293 cells expressing hDAT; format: cell-based; conditions: for DAT / NET ratio (uptake inhibition): 1/(DAT IC50) divided by 1/(NET IC50); for DAT / SERT ratio (uptake inhibition): 1/(DAT IC50) divided by 1/(SERT IC50); for IC50: IC50 DAT, inhibition of transporter-mediated uptake, hDAT, [3H]MPP+ 20 nM, mean ± SEM, n=3
human NET (hNET) = human NET (hNET) (Homo sapiens, UniProt P23975); experiment: Radiotracer uptake inhibition in HEK293 cells expressing hNET; format: cell-based; conditions: for NET / SERT ratio (uptake inhibition): 1/(NET IC50) divided by 1/(SERT IC50); for IC50: IC50 NET, inhibition of transporter-mediated uptake, hNET, [3H]MPP+ 20 nM, mean ± SEM, n=3
hSERT [4] = biological target: T3, hSERT; format: cell-based; conditions: 5 µM, without monensin, HEK293 cells
DAT [5] = biological target: T1, DAT; conditions: in vitro findings; ref Rothman et al., 2002; cited from earlier work
[6] = test system: extracellular dopamine and serotonin in rat nucleus accumbens; conditions: systemic administration, ref Rothman et al., 2002; cited from earlier work
[7] = test system: vesicular monoamine transporter 2 (VMAT2); conditions: at concentrations up to 100 μM; ref Partilla et al., 2006; cited from earlier work
hDAT [8] = biological target: T2, hDAT; conditions: ref Solis et al., 2016; cited from earlier work

human NET (hNET), sequence (P23975 whole entry): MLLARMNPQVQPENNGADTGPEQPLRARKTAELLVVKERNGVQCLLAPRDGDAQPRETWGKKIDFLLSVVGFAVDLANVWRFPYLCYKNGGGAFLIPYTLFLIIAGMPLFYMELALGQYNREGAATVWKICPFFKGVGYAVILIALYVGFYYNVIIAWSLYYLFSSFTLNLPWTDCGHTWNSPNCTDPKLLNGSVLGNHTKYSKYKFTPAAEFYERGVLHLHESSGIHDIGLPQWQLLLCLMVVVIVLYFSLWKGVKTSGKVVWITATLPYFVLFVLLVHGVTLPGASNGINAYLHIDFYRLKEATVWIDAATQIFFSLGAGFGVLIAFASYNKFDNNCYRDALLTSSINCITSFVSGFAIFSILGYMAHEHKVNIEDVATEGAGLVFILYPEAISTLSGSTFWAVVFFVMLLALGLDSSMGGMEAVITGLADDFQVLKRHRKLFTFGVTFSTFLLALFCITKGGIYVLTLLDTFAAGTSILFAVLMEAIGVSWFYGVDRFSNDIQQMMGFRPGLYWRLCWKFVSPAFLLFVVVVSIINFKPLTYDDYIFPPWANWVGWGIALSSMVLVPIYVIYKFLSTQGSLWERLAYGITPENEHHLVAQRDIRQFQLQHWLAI
human SERT (hSERT), sequence (P31645 whole entry): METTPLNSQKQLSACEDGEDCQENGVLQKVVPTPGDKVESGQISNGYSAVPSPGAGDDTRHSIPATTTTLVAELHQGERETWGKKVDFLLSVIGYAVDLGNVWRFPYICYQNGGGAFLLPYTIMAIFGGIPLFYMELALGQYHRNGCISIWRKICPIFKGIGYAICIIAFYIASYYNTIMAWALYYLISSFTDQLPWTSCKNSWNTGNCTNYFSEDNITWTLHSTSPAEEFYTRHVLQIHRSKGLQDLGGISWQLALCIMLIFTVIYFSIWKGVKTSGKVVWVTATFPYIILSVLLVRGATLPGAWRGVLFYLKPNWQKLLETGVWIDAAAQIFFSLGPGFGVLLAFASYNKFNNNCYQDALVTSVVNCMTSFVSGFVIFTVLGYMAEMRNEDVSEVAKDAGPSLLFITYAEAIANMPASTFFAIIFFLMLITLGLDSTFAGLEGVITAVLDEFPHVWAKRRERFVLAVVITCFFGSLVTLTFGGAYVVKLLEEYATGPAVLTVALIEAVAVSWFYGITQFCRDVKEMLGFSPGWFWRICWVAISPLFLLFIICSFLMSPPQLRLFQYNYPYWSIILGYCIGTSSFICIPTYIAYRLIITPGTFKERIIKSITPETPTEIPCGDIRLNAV
T3 sequence (P31645 whole entry): as above
T1 sequence (P23977 whole entry): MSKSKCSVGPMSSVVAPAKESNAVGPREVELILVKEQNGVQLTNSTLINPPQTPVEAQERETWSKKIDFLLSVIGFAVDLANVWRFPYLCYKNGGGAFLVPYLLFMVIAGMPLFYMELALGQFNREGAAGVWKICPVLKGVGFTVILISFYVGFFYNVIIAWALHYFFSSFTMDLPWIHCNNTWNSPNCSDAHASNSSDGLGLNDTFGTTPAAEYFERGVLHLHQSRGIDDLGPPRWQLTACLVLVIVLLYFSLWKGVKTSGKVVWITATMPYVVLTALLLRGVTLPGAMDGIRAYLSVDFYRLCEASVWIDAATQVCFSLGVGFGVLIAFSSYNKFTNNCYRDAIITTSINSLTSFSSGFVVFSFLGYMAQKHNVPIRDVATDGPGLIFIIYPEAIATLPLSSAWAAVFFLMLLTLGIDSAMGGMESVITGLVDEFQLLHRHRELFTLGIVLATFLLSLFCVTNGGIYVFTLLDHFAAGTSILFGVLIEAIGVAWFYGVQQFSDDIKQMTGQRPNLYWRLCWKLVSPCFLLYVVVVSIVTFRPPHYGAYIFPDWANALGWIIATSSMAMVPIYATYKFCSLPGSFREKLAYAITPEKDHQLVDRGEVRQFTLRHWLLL
human DAT (hDAT), sequence (Q01959 whole entry): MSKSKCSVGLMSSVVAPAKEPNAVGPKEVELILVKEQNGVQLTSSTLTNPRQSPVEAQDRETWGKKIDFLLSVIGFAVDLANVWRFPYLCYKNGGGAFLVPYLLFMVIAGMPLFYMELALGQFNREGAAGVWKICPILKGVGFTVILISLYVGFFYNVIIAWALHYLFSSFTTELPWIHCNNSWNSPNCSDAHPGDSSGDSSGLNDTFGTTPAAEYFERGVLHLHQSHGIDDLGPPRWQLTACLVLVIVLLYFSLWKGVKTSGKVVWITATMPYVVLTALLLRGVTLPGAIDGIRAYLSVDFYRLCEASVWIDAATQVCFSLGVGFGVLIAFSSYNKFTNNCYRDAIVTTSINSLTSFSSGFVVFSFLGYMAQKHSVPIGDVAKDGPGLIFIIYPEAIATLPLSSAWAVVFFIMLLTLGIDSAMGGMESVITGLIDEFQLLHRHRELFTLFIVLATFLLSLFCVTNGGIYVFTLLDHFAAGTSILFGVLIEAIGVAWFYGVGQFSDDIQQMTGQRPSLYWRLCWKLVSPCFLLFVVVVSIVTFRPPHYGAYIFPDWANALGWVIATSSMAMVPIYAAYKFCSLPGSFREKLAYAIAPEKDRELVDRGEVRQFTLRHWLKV
T2 sequence (Q01959 whole entry): as above
SERT, sequence (P31652 whole entry): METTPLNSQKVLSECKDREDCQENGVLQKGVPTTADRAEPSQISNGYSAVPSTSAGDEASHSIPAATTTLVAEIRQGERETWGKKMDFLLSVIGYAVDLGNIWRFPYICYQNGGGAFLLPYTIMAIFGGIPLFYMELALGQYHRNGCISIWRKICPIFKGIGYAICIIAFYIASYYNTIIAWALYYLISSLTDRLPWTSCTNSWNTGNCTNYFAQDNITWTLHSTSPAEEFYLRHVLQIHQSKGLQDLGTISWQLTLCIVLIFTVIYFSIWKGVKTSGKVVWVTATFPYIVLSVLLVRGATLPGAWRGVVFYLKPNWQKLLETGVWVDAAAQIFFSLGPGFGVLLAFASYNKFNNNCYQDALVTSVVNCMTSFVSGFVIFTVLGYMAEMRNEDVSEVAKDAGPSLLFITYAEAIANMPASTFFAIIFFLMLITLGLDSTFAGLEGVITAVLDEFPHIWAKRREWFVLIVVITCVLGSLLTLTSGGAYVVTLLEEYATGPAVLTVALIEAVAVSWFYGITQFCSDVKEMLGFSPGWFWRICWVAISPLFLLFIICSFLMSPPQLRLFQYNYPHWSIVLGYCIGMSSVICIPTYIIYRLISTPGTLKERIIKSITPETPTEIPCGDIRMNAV
hNET, sequence (P23975 whole entry): as the sequence (P23975 whole entry) above

## CC1NCCOC1c1ccccc1F (centres unmarked) [2-FPM, 2-(2-Fluorophenyl)-3-methylmorpholine]
NET
  NET / SERT ratio (release): 172
DAT [1]
  EC50: 0.112 ± 0.01 µM
  DAT / NET ratio (release): 0.25
  DAT / SERT ratio (release): 43
Human SERT (hSERT)
  IC50: 454 ± 15.4 µM
Human SERT (hSERT); at concentrations below 30 µM
  Effect on SERT mediated uptake: no obvious effect
hDAT [2]
  Effect on efflux of [3H]MPP+ via hDAT versus basal: increased tritium outflow above basal levels
hNET
  Effect on efflux of [3H]MPP+ via hNET versus basal: increased tritium outflow above basal levels
hSERT [3]; 30 µM
  Ionic current mediated via hSERT: −4 pA
hSERT [3]
  Kind of current evoked in SERT-expressing cells: inwardly directed ionic currents
SERT
  EC50: 4.81 ± 1.26 µM
Human DAT (hDAT)
  DAT / NET ratio (uptake inhibition): 0.97
  DAT / SERT ratio (uptake inhibition): 340.1
  IC50: 1.33 ± 0.09 µM
Human NET (hNET)
  NET / SERT ratio (uptake inhibition): 351.4
  IC50: 1.29 ± 0.03 µM
hSERT [4]
  Effect on efflux of [3H]5-HT via hSERT versus basal: no detectable effect

## CC1NCCOC1c1cccc(F)c1 (centres unmarked) [3-FPM, 2-(3-fluorophenyl)-3-methylmorpholine]
NET
  NET / SERT ratio (release): 75
DAT [1]
  EC50: 0.06 ± 0.004 µM
  DAT / NET ratio (release): 0.28
  DAT / SERT ratio (release): 21
Human SERT (hSERT)
  IC50: 112 ± 13.1 µM
hSERT [3]; 10 µM
  Ionic current mediated via hSERT: −3.8 pA
hSERT [3]
  Kind of current evoked in SERT-expressing cells: inwardly directed ionic currents
SERT
  EC50: 1.27 ± 0.207 µM
Human DAT (hDAT)
  DAT / NET ratio (uptake inhibition): 1.31
  DAT / SERT ratio (uptake inhibition): 96.4
  IC50: 1.16 ± 0.29 µM
Human NET (hNET)
  NET / SERT ratio (uptake inhibition): 73.7
  IC50: 1.51 ± 0.17 µM

## CC1NCCOC1c1ccc(F)cc1 (centres unmarked) [4-FPM, 2-(4-fluorophenyl)-3-methylmorpholine]
NET
  NET / SERT ratio (release): 33
DAT [1]
  EC50: 0.191 ± 0.017 µM
  DAT / NET ratio (release): 0.30
  DAT / SERT ratio (release): 10
Human SERT (hSERT)
  IC50: 88.1 ± 1.83 µM
hDAT [2]
  Effect on efflux of [3H]MPP+ via hDAT versus basal: increased tritium outflow above basal levels
hNET
  Effect on efflux of [3H]MPP+ via hNET versus basal: increased tritium outflow above basal levels
hSERT [3]; 10 µM
  Ionic current mediated via hSERT: −2.5 pA
hSERT [3]
  Kind of current evoked in SERT-expressing cells: inwardly directed ionic currents
SERT
  EC50: 1.89 ± 0.424 µM
Human DAT (hDAT)
  DAT / NET ratio (uptake inhibition): 0.96
  DAT / SERT ratio (uptake inhibition): 41.2
  IC50: 2.14 ± 0.39 µM
Human NET (hNET)
  NET / SERT ratio (uptake inhibition): 42.9
  IC50: 2.05 ± 0.28 µM
hSERT [4]
  Effect on efflux of [3H]5-HT via hSERT versus basal: significantly enhanced basal release; also recorded: moderate release

## NCCc1c[nH]c2ccc(O)cc12 [5-HT, 5-hydroxytryptamine, reference compound]
hSERT [3]; 30 µM
  Ionic current mediated via hSERT: −7 pA
hSERT [3]
  Kind of current evoked in SERT-expressing cells: inwardly directed ionic currents

## COC(=O)[C@H]1[C@@H](OC(=O)c2ccccc2)C[C@@H]2CC[C@H]1N2C [cocaine, reference compound]
hSERT [3]; 10 µM
  Ionic current mediated via hSERT: outwardly directed current

## CC1NCCOC1c1ccccc1 (centres unmarked) [phenmetrazine]
DAT [5]
  DAT-selectivity compared to SERT: at least 10 fold
[6]
  Extracellular dopamine and serotonin in nucleus accumbens: dose-related elevations
[7]
  Interaction with VMAT2 as an inhibitor or substrate: does not interact
hDAT [8]
  Current induced in cells expressing hDAT: inwardly-directed sodium current
